Measured values reported in patent publication US11427553B2, “Dihydrooxadiazinones” (Bayer Aktiengesellschaft, priority 2017, dated 2022).

Key:
human full length PDE3B = human full length PDE3B (Homo sapiens (Human), UniProt Q13370); test: Assay 5 PDE3B enzyme inhibition (3H-cAMP SPA); format: biochemical; settings: Sf9 cell extract
In short: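 Hydrolysis of tritiated cAMP by Sf9-expressed full-length human PDE3B proceeded 60 min at room temperature in Tris buffer pH 7.5 containing Mg2+, EDTA and BSA, with enzyme dilution keeping substrate consumption below 70%. IC50 derived from percent activity versus log compound concentration.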

NCI-H1734 cells = test: Assay 1 cell proliferation measurement, NCI-H1734; format: cell-based; settings: Homo sapiens, Lung, read-out: Anti-proliferation IC50 [nM] NCI-H1734
human full length PDE3A = human full length PDE3A (Homo sapiens (Human), UniProt Q14432); test: Assay 4 PDE3A enzyme inhibition (3H-cAMP SPA); format: biochemical; settings: Sf9 cell extract
In short: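 Hydrolysis of [8-3H]cAMP by Sf9-expressed full-length PDE3A was measured by scintillation proximity, with enzyme diluted to keep kinetics linear and substrate consumption below 70%. Incubation ran 60 min at room temperature at pH 7.5.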

H4 cells = test: Assay 1 cell proliferation measurement, H4; format: cell-based; settings: Homo sapiens; Astrocytoma; read-out: Anti-proliferation IC50 [nM] H4
IGR-1 cells = test: Assay 1 cell proliferation measurement, IGR-1; format: cell-based; settings: Homo sapiens, Melanoma, read-out: Anti-proliferation IC50 [nM] IGR-1
HMCB cells = test: Assay 1 cell proliferation measurement, HMCB; format: cell-based; settings: Homo sapiens, Melanoma, read-out: Anti-proliferation IC50 [nM] HMCB
[1] = Assay 6 in vitro metabolic stability in cryopreserved human hepatocytes (CL, Fmax); format: in vitro ADME; settings: 1 μM test compound
In short: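 Test compound at 1 μM incubated with cryopreserved human hepatocytes (1.0×10^6 viable cells/ml, WME with 5% FCS) under shaking, with samples taken from 2 to 90 min, methanol-quenched and analysed by LC-MS/MS. Half-life gave intrinsic clearance, scaled with liver blood flow and hepatocellularity to CL and Fmax.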

SK-MEL-3 cells = test: Assay 1 cell proliferation measurement (CTG, 72 h), SK-MEL-3; format: cell-based, human; settings: Homo sapiens, SK-MEL3; Assay 1, 72 h, Cell Titer Glo; read-out: SK-MEL-3 IC50 [nM] (melanoma)
In short: (§1)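 Seed cells, incubate overnight at 37 °C; measure baseline viability (CTG, 0 h plate); dose compound in a 10-step 2.5-fold series (max generally 100 nM final, DMSO 0.3%) for 72 h; read CTG luminescence; fit IC50 with 4 parameters.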

HeLa cells = test: Assay 1 cell proliferation measurement (CTG, 72 h), HeLa; format: cell-based, human; settings: Homo sapiens, HeLa; Assay 1, 72 h, Cell Titer Glo; read-out: HeLa IC50 [nM] (Cervical cancer)
In short: as §1

HEL 92.1.7 cells = test: Assay 1 cell proliferation measurement, HEL 92.1.7; format: cell-based; settings: Homo sapiens, Erythroleukemia, read-out: Anti-proliferation IC50 [nM] HEL 92.1.7

human full length PDE3A, sequence (Q14432 whole entry): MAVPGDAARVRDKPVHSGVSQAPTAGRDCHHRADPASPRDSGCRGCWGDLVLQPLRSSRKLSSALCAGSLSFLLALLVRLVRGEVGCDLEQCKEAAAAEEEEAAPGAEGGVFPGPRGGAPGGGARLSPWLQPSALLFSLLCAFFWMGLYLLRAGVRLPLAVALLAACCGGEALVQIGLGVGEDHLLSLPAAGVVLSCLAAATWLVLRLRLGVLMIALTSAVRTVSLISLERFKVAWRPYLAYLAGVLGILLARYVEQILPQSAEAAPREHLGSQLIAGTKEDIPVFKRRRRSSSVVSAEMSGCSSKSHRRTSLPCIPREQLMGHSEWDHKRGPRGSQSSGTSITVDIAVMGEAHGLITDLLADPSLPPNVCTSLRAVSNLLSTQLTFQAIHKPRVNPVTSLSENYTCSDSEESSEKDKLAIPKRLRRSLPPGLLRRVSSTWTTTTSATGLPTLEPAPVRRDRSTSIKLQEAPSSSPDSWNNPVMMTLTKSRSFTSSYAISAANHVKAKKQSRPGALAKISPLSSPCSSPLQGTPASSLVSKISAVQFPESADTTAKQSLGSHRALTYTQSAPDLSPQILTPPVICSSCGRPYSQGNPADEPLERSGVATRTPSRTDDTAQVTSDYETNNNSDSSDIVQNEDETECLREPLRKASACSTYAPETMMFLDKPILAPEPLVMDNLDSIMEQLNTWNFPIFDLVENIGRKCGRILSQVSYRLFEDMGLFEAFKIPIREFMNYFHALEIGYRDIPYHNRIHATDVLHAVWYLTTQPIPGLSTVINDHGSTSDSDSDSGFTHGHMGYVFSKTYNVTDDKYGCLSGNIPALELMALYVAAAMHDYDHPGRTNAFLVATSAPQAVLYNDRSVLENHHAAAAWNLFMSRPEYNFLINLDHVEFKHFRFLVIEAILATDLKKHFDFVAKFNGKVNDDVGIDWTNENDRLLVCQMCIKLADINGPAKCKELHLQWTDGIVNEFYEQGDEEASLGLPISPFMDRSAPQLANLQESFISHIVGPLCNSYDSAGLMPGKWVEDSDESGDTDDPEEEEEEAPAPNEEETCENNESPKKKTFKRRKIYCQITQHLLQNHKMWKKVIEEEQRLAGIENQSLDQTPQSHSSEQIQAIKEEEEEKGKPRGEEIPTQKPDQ
human full length PDE3B, sequence (Q13370 whole entry): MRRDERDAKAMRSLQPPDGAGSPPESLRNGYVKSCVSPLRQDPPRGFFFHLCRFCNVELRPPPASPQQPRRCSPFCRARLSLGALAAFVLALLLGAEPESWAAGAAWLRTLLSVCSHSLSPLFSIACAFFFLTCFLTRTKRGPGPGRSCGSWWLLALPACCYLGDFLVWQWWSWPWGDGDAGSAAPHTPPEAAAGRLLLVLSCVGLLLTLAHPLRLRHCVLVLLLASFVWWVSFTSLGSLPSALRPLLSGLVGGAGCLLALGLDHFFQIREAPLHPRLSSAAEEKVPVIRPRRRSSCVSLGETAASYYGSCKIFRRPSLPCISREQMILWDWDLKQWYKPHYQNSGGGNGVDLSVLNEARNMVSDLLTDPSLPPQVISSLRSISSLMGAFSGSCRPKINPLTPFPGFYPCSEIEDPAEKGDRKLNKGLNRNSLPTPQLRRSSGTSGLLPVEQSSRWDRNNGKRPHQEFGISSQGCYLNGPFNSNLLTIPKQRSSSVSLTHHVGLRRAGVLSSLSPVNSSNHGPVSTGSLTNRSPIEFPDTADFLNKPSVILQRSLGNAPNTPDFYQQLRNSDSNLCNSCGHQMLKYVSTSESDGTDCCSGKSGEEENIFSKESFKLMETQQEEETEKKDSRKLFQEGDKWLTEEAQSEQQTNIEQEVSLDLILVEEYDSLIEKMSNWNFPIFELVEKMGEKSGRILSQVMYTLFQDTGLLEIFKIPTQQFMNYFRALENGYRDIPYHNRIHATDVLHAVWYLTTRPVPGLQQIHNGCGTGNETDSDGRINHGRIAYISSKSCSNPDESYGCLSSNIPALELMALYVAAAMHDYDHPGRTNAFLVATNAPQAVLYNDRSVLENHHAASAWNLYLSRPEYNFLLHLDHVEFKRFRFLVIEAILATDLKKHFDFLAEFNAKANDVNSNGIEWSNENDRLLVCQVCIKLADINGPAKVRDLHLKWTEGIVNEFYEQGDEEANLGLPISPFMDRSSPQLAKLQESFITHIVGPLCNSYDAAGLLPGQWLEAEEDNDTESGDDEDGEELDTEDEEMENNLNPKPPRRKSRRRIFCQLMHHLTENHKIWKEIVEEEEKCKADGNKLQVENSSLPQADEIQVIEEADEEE

IC50 (human full length PDE3B): 0.173 µM
IC50 (NCI-H1734 cells): 19 nM
IC50 (human full length PDE3A): 0.275 µM
Clblood ([1]; hepatic in vivo blood clearance calculated (well-stirred) from half-life in cryopreserved human hepatocytes): 0.24 L/h/kg
Fmax ([1]; maximal oral bioavailability calculated from half-life in cryopreserved human hepatocytes): 82%
IC50 (SK-MEL-3 cells): 3 nM
IC50 (HeLa cells): 2 nM
Compound: O=C1NN=C(c2ccc(N3CCC(F)(F)CC3)c(F)c2)CO1 [Example 1, 5-[4-(4,4-Difluoropiperidin-1-yl)-3-fluorophenyl]-3,6-dihydro-2H-1,3,4-oxadiazin-2-one]
IC50 (H4 cells): 30 nM
IC50 (IGR-1 cells): 89 nM
IC50 (HMCB cells): 19 nM
IC50 (HEL 92.1.7 cells): 20 nM
